Measured values taken from patent US20070049564A1 (Wyeth, priority 2005, published 2007).
In brackets after ≈: the same amount, converted by molar mass. Like-named read-outs stand apart in the source and are kept apart here.

Assays:
E. coli GC 2231 = test: MIC, broth microdilution; settings: Escherichia coli
P. aeruginosa GC 2214 = test: MIC, broth microdilution; settings: Pseudomonas aeruginosa
E. faecalis GC 4555 = test: MIC, broth microdilution; settings: Enterococcus faecalis
Staph. aureus Smith = test: In vivo activity (oral, iv; ED50) against Staph. aureus Smith in mice
Protocol: Representative examples of compounds of Formula I were tested for the oral efficacy using S. aureus Smith in mice.

S. aureus GC 1131 = test: MIC, broth microdilution; settings: Staphylococcus aureus
S. pneumoniae+ GC 4465 = test: MIC, broth microdilution; settings: Streptococcus pneumoniae
S. pneumoniae* GC 4465 = test: MIC, broth microdilution; settings: Streptococcus pneumoniae
E. faecalis GC 2242 = test: MIC, broth microdilution; settings: Enterococcus faecalis
E. coli = test: Range of MIC for E. coli strains; settings: Escherichia coli
E. faecium GC 2243 = test: MIC, broth microdilution; settings: Enterococcus faecium
Staph. = test: Range of MIC for Staph. strains, including MRSA; settings: Staphylococcus aureus, MRSA
S. aureus GC 2216 = test: MIC, broth microdilution; settings: Staphylococcus aureus
E. faecalis GC 2265 = test: MIC, broth microdilution; settings: Enterococcus faecalis
E. coli GC 2236 = test: MIC, broth microdilution; settings: Escherichia coli
S. epidermidis GC 4935 = test: MIC, broth microdilution; settings: Staphylococcus epidermidis
E. faecalis GC 2267 = test: MIC, broth microdilution; settings: Enterococcus faecalis
E. coli GC 2272 = test: MIC, broth microdilution; settings: Escherichia coli
c. albicans GC 3066 = test: MIC, broth microdilution
E. coli GC 2232 = test: MIC, broth microdilution; settings: Escherichia coli
S. aureus GC 4536 = test: MIC, broth microdilution; settings: Staphylococcus aureus
[1] = read-out: MINIMAL INHIBITORY CONCENTRATION MIC, pre-incubated in Mouse Serum
[2] = read-out: MINIMAL INHIBITORY CONCENTRATION MIC, pre-incubated in Water

For `CCCN(CC(=O)Nc1cc(N(C)C)c2c(c1O)C(=O)C1=C(O)[C@]3(O)C(=O)C(C(N)=O)=C(O)[C@@H](N(C)C)[C@@H]3C[C@@H]1C2)C(=O)OCOC(=O)c1cccs1` [Example 25, ({[(2-{[(5aR,6aS,7S,10aS)-9-(aminocarbonyl)-4,7-bis(dimethylamino)-1,8,10a,11-tetrahydroxy-10,12-dioxo-5,5a,6,6a,7,10,10a,12-octahydrotetracen-2-yl]amino}-2-oxoethyl)(propyl)amino]carbonyl}oxy)methyl thiophene-2-carboxylate], the MIC (E. coli GC 2231; GC2231, read-out: MINIMAL INHIBITORY CONCENTRATION MIC, pre-incubated in Mouse Serum) was 2 µg/mL (≈ 2.65 µM), the MIC (E. coli GC 2231; GC2231, read-out: MINIMAL INHIBITORY CONCENTRATION MIC, pre-incubated in Water) was over 64 µg/mL and the MIC (P. aeruginosa GC 2214; GC2214, read-out: MINIMAL INHIBITORY CONCENTRATION MIC, pre-incubated in Mouse Serum) was 32 µg/mL (≈ 42.3 µM). For the same compound, the MIC (P. aeruginosa GC 2214; GC2214, read-out: MINIMAL INHIBITORY CONCENTRATION MIC, pre-incubated in Water) was over 64 µg/mL, the MIC (E. faecalis GC 4555; GC4555, read-out: MINIMAL INHIBITORY CONCENTRATION MIC, pre-incubated in Mouse Serum) was 1 µg/mL (≈ 1.32 µM) and the MIC (E. faecalis GC 4555; GC4555, read-out: MINIMAL INHIBITORY CONCENTRATION MIC, pre-incubated in Water) was 2 µg/mL (≈ 2.65 µM). For the same compound, the ED50 (Staph. aureus Smith; Staphylococcus aureus, in Mus musculus, po, read-out: ED50 Staph Smith SOD) was 15.7 mg/kg, the ED50 (Staph. aureus Smith; iv, read-out: ED50 Staph Smith SIV) was 0.56 mg/kg and the MIC (S. aureus GC 1131; GC1131, read-out: MINIMAL INHIBITORY CONCENTRATION MIC, pre-incubated in Mouse Serum) was 0.5 µg/mL (≈ 0.662 µM). The MIC (S. aureus GC 1131; GC1131, read-out: MINIMAL INHIBITORY CONCENTRATION MIC, pre-incubated in Water) was 0.5 µg/mL (≈ 0.662 µM), the MIC (S. pneumoniae+ GC 4465; [1]) was 4 µg/mL (≈ 5.29 µM) and the MIC (S. pneumoniae+ GC 4465; [2]) was 4 µg/mL (≈ 5.29 µM). The MIC (S. pneumoniae* GC 4465; [1]) was 0.12 µg/mL (≈ 0.159 µM), the MIC (S. pneumoniae* GC 4465; [2]) was 0.25 µg/mL (≈ 0.331 µM) and the MIC (E. faecalis GC 2242; GC2242, read-out: MINIMAL INHIBITORY CONCENTRATION MIC, pre-incubated in Mouse Serum) was 2 µg/mL (≈ 2.65 µM). For the same compound, the MIC (E. faecalis GC 2242; GC2242, read-out: MINIMAL INHIBITORY CONCENTRATION MIC, pre-incubated in Water) was 2 µg/mL (≈ 2.65 µM), the MIC (E. coli; 20 h, read-out: Range of MIC, E. coli (Mouse Serum)) was 1 to 2 µg/mL (≈ 1.32 to 2.65 µM) and the MIC (E. coli; read-out: Range of MIC, E. coli (mouse serum)) was 1 to 2 µg/mL (≈ 1.32 to 2.65 µM). The MIC (E. faecium GC 2243; GC2243, read-out: MINIMAL INHIBITORY CONCENTRATION MIC, pre-incubated in Mouse Serum) was 0.5 µg/mL (≈ 0.662 µM), the MIC (E. faecium GC 2243; GC2243, read-out: MINIMAL INHIBITORY CONCENTRATION MIC, pre-incubated in Water) was 1 µg/mL (≈ 1.32 µM) and the MIC (Staph.; read-out: Range of MIC, Staph (Mouse Serum)) was 0.25 to 2 µg/mL (≈ 0.331 to 2.65 µM). For the same compound, the MIC (Staph.; read-out: Range of MIC, Staph (Water)) was 0.5 to 4 µg/mL (≈ 0.662 to 5.29 µM), the MIC (Staph.; read-out: Range of MIC, Staph. (mouse serum)) was 0.25 to 2 µg/mL (≈ 0.331 to 2.65 µM) and the MIC (Staph.; read-out: Range of MIC, Staph. (water)) was 0.5 to 4 µg/mL (≈ 0.662 to 5.29 µM). The MIC (S. aureus GC 2216; GC2216, read-out: MINIMAL INHIBITORY CONCENTRATION MIC, pre-incubated in Mouse Serum) was 0.5 µg/mL (≈ 0.662 µM), the MIC (S. aureus GC 2216; GC2216, read-out: MINIMAL INHIBITORY CONCENTRATION MIC, pre-incubated in Water) was 1 µg/mL (≈ 1.32 µM) and the MIC (E. faecalis GC 2265; GC2265, read-out: MINIMAL INHIBITORY CONCENTRATION MIC, pre-incubated in Mouse Serum) was 2 µg/mL (≈ 2.65 µM). For the same compound, the MIC (E. faecalis GC 2265; GC2265, read-out: MINIMAL INHIBITORY CONCENTRATION MIC, pre-incubated in Water) was 2 µg/mL (≈ 2.65 µM), the MIC (E. coli GC 2236; GC2236, read-out: MINIMAL INHIBITORY CONCENTRATION MIC, pre-incubated in Mouse Serum) was 2 µg/mL (≈ 2.65 µM) and the MIC (E. coli GC 2236; GC2236, read-out: MINIMAL INHIBITORY CONCENTRATION MIC, pre-incubated in Water) was 64 µg/mL (≈ 84.7 µM). For the same compound, the MIC (S. epidermidis GC 4935; GC4935, read-out: MINIMAL INHIBITORY CONCENTRATION MIC, pre-incubated in Mouse Serum) was 1 µg/mL (≈ 1.32 µM), the MIC (S. epidermidis GC 4935; GC4935, read-out: MINIMAL INHIBITORY CONCENTRATION MIC, pre-incubated in Water) was 2 µg/mL (≈ 2.65 µM) and the MIC (E. faecalis GC 2267; GC2267, read-out: MINIMAL INHIBITORY CONCENTRATION MIC, pre-incubated in Mouse Serum) was 2 µg/mL (≈ 2.65 µM). The MIC (E. faecalis GC 2267; GC2267, read-out: MINIMAL INHIBITORY CONCENTRATION MIC, pre-incubated in Water) was 4 µg/mL (≈ 5.29 µM), the MIC (E. coli GC 2272; GC2272, read-out: MINIMAL INHIBITORY CONCENTRATION MIC, pre-incubated in Mouse Serum) was 2 µg/mL (≈ 2.65 µM) and the MIC (E. coli GC 2272; GC2272, read-out: MINIMAL INHIBITORY CONCENTRATION MIC, pre-incubated in Water) was 64 µg/mL (≈ 84.7 µM). The MIC (c. albicans GC 3066; Candida albicans, GC3066, read-out: MINIMAL INHIBITORY CONCENTRATION MIC) was over 64 µg/mL, the “MINIMAL INHIBITORY CONCENTRATION MIC” value (c. albicans GC 3066; pre-incubated in Water) was over 64 UG/ML and the MIC (E. coli GC 2232; GC2232, read-out: MINIMAL INHIBITORY CONCENTRATION MIC, pre-incubated in Mouse Serum) was 1 µg/mL (≈ 1.32 µM). It also gave an MIC (E. coli GC 2232; GC2232, read-out: MINIMAL INHIBITORY CONCENTRATION MIC, pre-incubated in Water) of over 64 µg/mL, an MIC (S. aureus GC 4536; GC4536, read-out: MINIMAL INHIBITORY CONCENTRATION MIC, pre-incubated in Mouse Serum) of 0.5 µg/mL (≈ 0.662 µM) and an MIC (S. aureus GC 4536; GC4536, read-out: MINIMAL INHIBITORY CONCENTRATION MIC, pre-incubated in Water) of 0.5 µg/mL (≈ 0.662 µM).
